Assay in all cases: DTP human tumour cell line panel, 48 h
For assay [1], the system named is MALME-3M melanoma.
The test system of assay [2] is M14 melanoma.
Assay [3] has as its system CCRF-CEM leukemia.
Assay [4] deals with 786-0 renal.
Assay [5] deals with OVCAR-5 ovarian.
Assay [6] concerns HCC-2998 colon.
In assay [7] the test system is HOP-62 NSCLC.
For assay [8], the system named is EKVX NSCLC.
Assay [9] relates to LOX IMVI melanoma.
For assay [10], the system named is HL-60(TB) leukemia.
In assay [11] the test system is TK-10 renal.
Assay [12] has as its system SNB-19 CNS.
In assay [13] the test system is K-562 leukemia.
Assay [14] relates to SW-620 colon.
Assay [15] relates to RXF 393 renal.

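These data come from cells grown in 96-well plates and exposed to compound for 48 hours at five concentrations. TGI is the concentration that stops growth completely.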

In general, TGI refers to the concentration giving total growth inhibition. High values mean lower sensitivity of the cells, low ones greater sensitivity of the cells. On to `C/C(CN1C(=O)c2ccccc2C1=O)=N\NS(=O)(=O)c1ccc(F)cc1`, for which the TGI in [1], in [2], in [3], in assay [4], in [5] and in [6] was > 100 µM each time. The concentration for total growth inhibition (TGI) in assay [7], in assay [8], in assay [9], in assay [10], in assay [11] and in assay [12] was > 100 µM each time. The TGI in [13] and in assay [14] was > 100 µM throughout.
As for `COc1cccc(/C=C2\C(=O)N(C(=O)Cc3ccccc3)N=C2C)c1`, the concentration for total growth inhibition (TGI) in assay [1], in assay [2], in assay [3], in assay [4], in assay [5] and in [6] was > 100 µM throughout. In addition, the concentration for total growth inhibition (TGI) in assay [7], in [8], in assay [9], in [10], in [11] and in [12] was > 100 µM throughout. The total growth inhibition concentration (TGI) in [13] and in [14] was > 100 µM in each case.
On to `Cn1c2c(cc(-c3ccccc3)c1=O)COc1ccccc1-2`, for which the TGI in assay [1] is 50.8 µM; in [2], 94.4 µM; in assay [3], 57.5 µM; in assay [4], > 100 µM; in assay [15], > 100 µM; in assay [5], 54.1 µM. Moreover, the TGI in [6] is > 100 µM; in assay [7], > 100 µM; in [8] it was > 100 µM; in assay [9], 31.3 µM; in [10], 56.1 µM; in assay [12], > 100 µM. Further, the concentration for total growth inhibition (TGI) is 53.2 µM in assay [13] and > 100 µM in assay [14].
With `COCC12CC(CC1=O)C1C2ON2c3ccccc3C(=O)C12c1ccccc1` (stereo not given), the TGI in assay [1], in [2], in [3], in assay [4], in assay [15] and in [6] was > 100 µM in each case. In addition, the concentration for total growth inhibition (TGI) in assay [7], in [8], in [10], in [12], in [13] and in [14] was > 100 µM each time.
For the molecule `Cn1c(N)c(-c2c3ccccc3nc3ccccc23)c(=O)n(C)c1=O`, the TGI in assay [1], in assay [2], in assay [3], in assay [4], in assay [15] and in [5] was > 100 µM each time. Further, the total growth inhibition concentration (TGI) in [8], in assay [10], in [11], in assay [13] and in [14] was > 100 µM in each case.
Regarding `CCCOCN1COCN=C1NC#N`, the TGI in [1] was > 100 µM; in [2] it was > 100 µM; in assay [4], 45.1 µM; in assay [15], 29.8 µM; in [5] it was > 100 µM; in assay [6], > 100 µM. Besides, the concentration for total growth inhibition (TGI) in assay [7] was > 100 µM; in assay [8], > 100 µM; in [9], 47.5 µM; in assay [10], > 100 µM; in assay [11], > 100 µM; in assay [12] it was > 100 µM. The concentration for total growth inhibition (TGI) is > 100 µM in [13] and 32.3 µM in assay [14].
For `CCOC(=O)c1cn2c([nH]c3ccccc32)c(C#N)c1=O`, the concentration for total growth inhibition (TGI) in assay [1], in assay [2], in assay [3], in [4], in [15] and in assay [5] was > 100 µM throughout. The TGI in assay [6] was > 100 µM; in [7] it was > 100 µM; in assay [8], > 100 µM; in [9], 56.8 µM; in assay [10], 47.1 µM; in [11] it was > 100 µM. Moreover, the concentration for total growth inhibition (TGI) in assay [12] is > 100 µM; in assay [13] it was > 100 µM; in assay [14], 39.5 µM.
Consider `CC1=NN(c2ccccc2)C(=O)C1=C1SCCCS1`, for which the TGI in [1] was > 100 µM; in assay [2] it was > 100 µM; in assay [3] it was 39 µM; in [4], > 100 µM; in assay [15], 60.7 µM; in [5] it was > 100 µM. Also, the TGI was > 100 µM in assay [6]; > 100 µM in assay [7]; 88.4 µM in assay [8]; 55.8 µM in assay [9]; 41.9 µM in [10]; > 100 µM in [11]. The TGI in [12] is 84.7 µM; in assay [13], 47.6 µM; in assay [14], 26.6 µM.
In the case of `Nc1ccc(C(=O)NN2C(=O)C(Cl)C2c2cccc([N+](=O)[O-])c2)cc1` (stereo not given), the total growth inhibition concentration (TGI) was 35.6 µM in assay [1]; 39.6 µM in assay [2]; 30.4 µM in assay [3]; 33.1 µM in assay [4]; 37.7 µM in assay [5]; 39.5 µM in [6]. The TGI in assay [7] worked out at 41.6 µM; in [8] it was 47.7 µM; in [9], 25.1 µM; in [10], 41.4 µM; in [11], 35.3 µM; in assay [12] it was 32.1 µM. Further, the TGI in assay [13] amounted to 47.5 µM; in assay [14] it was 40 µM.
Take `CO[C@H](c1ccccc1)[C@H](C)N(C)c1ccc2ccccc2c1C1=NC(C)(C)CO1`: the concentration for total growth inhibition (TGI) in [1] worked out at 33 µM; in assay [2], 33.6 µM; in [3], 48.9 µM; in [4], 30.1 µM; in assay [15], 27.6 µM; in assay [7], 36 µM. Further, the total growth inhibition concentration (TGI) is 44.2 µM in assay [8]; 61.3 µM in assay [10]; 61.8 µM in assay [11]; 84.7 µM in assay [12]; 88.5 µM in assay [13]; 33.4 µM in [14].

Source of the values: PubChem BioAssay (NCI).
